In test [1] the test system is ER stress markers BIP, CHOP, p-eIF-2α. The test can be described thus: ER stress markers in the corpus callosum of cuprizone treated mice expressing IFN-γ. The test is classed as in vivo. As for the experimental part:
Repression of remyelination by IFN-γ is associated with ER stress. […] To determine whether IFN-γ interferes with endoplasmic reticulum (ER) function in remyelinating oligodendrocytes, the expression of ER stress markers was monitored in the corpus callosum of mice expressing IFN-γ. The study was performed using the transgenic mice described in Example 1.
The level of mRNA encoding ER stress associated genes binding immunoglobulin protein/78 KDa glucose regulated protein (BIP/GRP78) and the CAATT enhancer-binding protein homologous protein/growth and DNA damage protein 153 (CHOP/GADD153), was determined using real time PCR, as described in Example 1 in the corpus callosum of the cuprizone treated mice of Example 1. The probes, sense and antisense primers that were used were: […]
The level of phosphorylated eIF-2α, which inhibits nucleotide exchange on the eIF-2 complex and attenuates most protein synthesis, was analyzed by Western blot, and the expression was colocalized by immunostaining CC1 antibodies as described above. Western blot analysis was performed as follows. The corpus callosum from 3 mice was rinsed in ice cold phosphate-buffered saline (PBS) and pooled, and immediately homogenized in 5 volumes of Triton X-100 buffer (20 mM HEPES pH 7.5, 150 mM NaCl, 1% Triton X-100, 10% glycerol, 1 mM EDTA, 10 mM tetrasodium pyrophosphate, 100 mM NaF, 17.5 mM β-glycerophosphate, 10 mM phenylmethylsulfonyl fluoride, 15 μg/ml aprotonin, and 6 μg/ml pepstatin A) using a motorized homogenizer. After incubation on ice for 15 min, the extracts were cleared by centrifugation at 14,000 rpm twice for 30 min each. The protein content of each extract was determined by protein assay (Bio-Rad). The extracts (40 μg) were separated by sodium dodecyl sulfate-polyacrylamide gel electrophoresis and transferred to nitrocellulose. […] The following primary antibodies were used: anti-eIF-2α (1:500; Santa Cruz, Santa Cruz, Calif.), anti-p-eIF-2α (1:1000, Cell signaling Technology), anti-CHOP (1:500; Santa Cruz) and anti-actin (1:1000; Sigma, St Louis, Mo.).

For test [2], the system named is cultured rat oligodendrocytes. Briefly: IFN-γ treatment of cultured rat oligodendrocytes (apoptosis, ER stress markers). It counts as cell-based. As for the experimental part:
To test whether apoptosis of oligodendrocytes that is induced by INF-γ affects ER stress, the effect on the morphology, the degree of apoptosis and the expression of ER markers was studied in a culture of oligodendrocyte precursor cells (OPC). Oligodendrocyte progenitors were cultured from neonatal rat brains (Baerwald, et al. (1998) J. Neurosci. Res. 52: 230-239). A mixed glial culture was grown in flasks in medium containing 10% fetal bovine serum (FBS), and when the astrocyte layer became confluent (10-14 days), oligodendrocyte progenitors were separated from astrocytes and microglia using an orbital shaker. Cells, greater than 95% of which were A2B5 positive, GFAP negative and CD11b negative, were cultured in 0.5% FBS containing medium, which also contained PDGF (10 ng/ml) and FGF (5 ng/ml) (both from R&D Systems, Minneapolis, Minn.). Then cells were switched to 0.5% FBS medium without PDGF and FGF for differentiation. After 5 days in the differentiating medium, approximately 40% of cells were positive for myelin protein 2′3′-cyclic nucleotide 3′-phosphodiestaerase (CNP). 70 U/ml recombinant rat IFN-γ (Calbiochem, La Jolla, Calif.) was added to the cells that had been allowed to differentiation for 5 days. After 5 d in the differentiating medium, about 40% of the cells were CNP positive. 70 U/ml of recombinant rat INF-γ (Calbiochem) was added to the cells that had been allowed to differentiate for 5d. To examine the oligodendroglial response to general ER stress-inducing agents, progenitor cells that had been cultured in differentiation medium for 5 or 7 days were treated with 2 μg/ml of tunicamycin (Sigma Aldrich) for 6 hours.
The level of apoptosis of the OPC cells was determined by double staining CNP (1:200; Stemberger Monoclonals, Lutherville, Md.) and TUNEL using the ApopTag Kit (Serologicals Corp., Norcross, […].) and following the manufacturer's instructions. Apoptosis was also evaluated by measuring the activity of caspase-3 in oligodendrocyte lysates using the Fluorimetric Caspase 3 Assay Kit (Sigma, St. Louis, Mo.), according to the manufacturer's instructions.
To determine whether INF-γ affects ER function, the RNA expression of ER markers binding immunoglobulin protein (BIP), CAAT enhancer binding protein homologous protein (CHOP), and caspase 12 was determined using real time PCR. RNA was isolated from cultured cells and mice brain using Trizol reagent (Invitrogen, Carlsbad, Calif.) and treated with DNAaseI (Invitrogen) to eliminate genomic DNA. Reverse transcription was performed using Superscript First Strand Synthesis System for RT-PCR kit (Invitrogen). Real-time PCR was performed with iQ Supermix (Bio-Rad, Hercules, Calif.) on a Bio-Rad iQ real-time PCR detection system (Bio-Rad). The following primers and probes (Integrated DNA Technologies Inc., Coralville, Iowa) for real-time PCR were used: mouse CHOP sense primer […] (SEQ ID NO: 34); mouse CHOP antisense primer […] (SEQ ID NO: 35); CHOP probe […] (SEQ ID NO: 36); mouse BIP sense primer […] (SEQ ID NO: 31); mouse BIP antisense primer […] (SEQ ID NO: 32); BIP probe […] (SEQ ID NO: 33); mouse caspase 12 sense primer […] (SEQ ID NO: 37); and mouse caspase antisense primer […] (SEQ ID NO: 38).
To determine the effect of INF-γ on the level of phosphorylated eIF-2α and caspase 12 proteins, western blot analysis was performed using the following antibodies anti-eIF-2α (1:500; Santa Cruz), anti-p-eIF-2α (1:1000, Cell signaling Technology), anti-caspase-12 (1:500; Santa Cruz) and anti-actin (1:1000; Sigma, St Louis, Mo.), and according to the following protocol. […]

Setting [3] is: corpus callosum of DOX− mice, Western blot.

This note sets out measurements from patent US8309790B2, “Animal models for demyelination disorders” (University of Chicago, priority 2005, dated 2012).

For the substance interferon-γ [IFN-γ], in test [1] (setting [3]), the “level of CHOP protein” value was “approximately 1.7 fold” and the “level of phosphorylated eIF-2α (p-eIF-2α)” value is listed as “approximately 1.8 fold”. In addition, the “level of mRNA for BIP and CHOP” value in test [1] (corpus callosum, DOX− compared to control DOX+, real time PCR) was “approximately 2 fold”. For the same substance, in test [2] (70 U/ml IFN-γ), the “caspase-3 activity in the cell lysates” value is recorded as “markedly increased”. In addition, the “apoptosis, TUNEL and CNP double labeling” value in test [2] (70 U/ml IFN-γ for 48 h) was “induced apoptosis in a significant number of oligodendrocytes”. Moreover, in test [2] (70 U/ml IFN-γ for 48 h, cells differentiated 5 days), the cell morphology entry is reported as “abnormal morphological changes”. Also, the “level of phosphorylated eIF-2α (p-eIF-2α)” value in test [2] (70 U/ml IFN-γ, Western blot) is “significantly elevated”. Besides, in test [2] (70 U/ml IFN-γ, real-time PCR), the caspase-12 expression entry is reported as “induction of caspase-12 was observed”; the “levels of mRNA encoding BIP/GRP78 and CHOP/GADD153” value is reported as 2 to 3 times. For the same substance, in test [2] (after 48 h of IFN-γ treatment, Western blot), the “level of the active fragment of caspase-12” value is listed as “strongly elevated”.
